Columns and labels:
[1] = molecular target: Recombinant human CSF1R kinase (Homo sapiens (Human), UniProt P07333); test: Measurement of CSF1R kinase activity at molecular level (Z-LYTE); type: biochemical; details: Z-LYTE Tyr 1 peptide
Description: Invitrogen, PV3227; • Development reagent B: Invitrogen, PV3295; • Development buffer: Invitrogen. P3127; • Stopping solution: Invitrogen, P3094; • Recombinant human CSF1R kinase: Invitrogen, P[…]; • 384 well plate, black: Corning. 3575; • Envision: Perkin Elmer. 2. […] The test compound was diluted in gradient to 4-fold the reaction concentration and the concentration of DMSO was kept at 8%. […] The mixture was mixed gently with a pipette. • 4) A phosphorylated peptide substrate solution (PP solution): 0.4 μL of Z-LYTETM Tyr1 phosphorylated peptide substrate was added to 99.6 μl of 1.33× kinase buffer. • 5) ATP solution: 10 mM of ATP was diluted to 760 μM with 1.33× kinase buffer to prepare ATP solution. • 6) Development solution: Development reagent B was diluted with Development buffer at a ratio of 1:200. 3. […] 2.5 μL of 4× test compound was added to each reaction well of the 384 plate, and the corresponding volume of 8% DMSO was added to the control well. The plate was placed on ice. […] After adding the reaction components, the 384-well plate was sealed and incubated at 25-30° C. for 1 h in dark. 2) Development Reaction 5 μL of Development solution was added to each well, sealed and incubated at 25-30° C. for another 1 h in dark. 3) Reaction Stopping and Plate Reading 5 μL of stopping solution was added to each well. The Coumarin value (excitation at 400 nm, emission at 445 nm) and Fluorescein value (excitation at 400 nm, emission at 520 nm) were measured, respectively. 4. […] Coumarin emission read-out (445 nm)/Fluorescein emission read-out (520 nm); • C3 445 nm: 100% phosphorylated Coumarin emission read-out; • C3 520 nm: 100% phosphorylated Fluorescein emission read-out; • C1 445 nm: 0% phosphorylated Coumarin emission read-out; • C1 520 nm: 0% phosphorylated Fluorescein emission read-out. […] 5. IC50 values: calculated by using software XL-FitTM (version 5.3) supplied by ID Business Solutions (Guildford, UK), which is an additional software to Microsoft Excel.

[2] = molecular target: CSF1R phosphorylation in THP-1 cells (Homo sapiens (Human), UniProt P07333); test: Detection of CSF1R phosphorylation activity at cell level (p-CSF1R ELISA, M-CSF stimulated THP-1 cells); type: cell-based; details: THP-1 cells, M-CSF stimulation, p-CSF1R ELISA; read-out: IC50
Description: THP-1 (ATCC), human acute monocytic leukemia cells.
3. Treatment of cells and preparation of lysis buffer
5 μL. of the diluted compound was added to the 50 μL cell culture system, the culture was cultured in a 5% CO2, 37° C. cell incubator for 60 min, 300 ng/mL of M-CSF was added to the cells, and the mixture was stimulated in the 37° C. cell incubator for 1 min, added 50 μL of cell lysis buffer, and stored in a refrigerator at −80° C.
100 μL/well of the p-CSF1R capture antibody diluted to 0.8 μg/mL with PBS was added to the ELISA plate, and the plate was coated on a shaker at room temperature overnight. The culture was washed with PBST, and then added blocking solution and incubated at room temperature for 2 h. The culture was washed with PBST, added 90 μL of cell lysis buffer, and incubated on a shaker at 25° C. for 2 h. The plate was washed with PBST three times, added 100 μL of anti-p-tyrosine-HRP detection antibody diluted with 0.1% PBS-BSA diluent, and incubated on a shaker at 25° C. for 2 h. The plate was washed with PBST washing liquid, added 100 μL of chromogenic substrate and incubated at room temperature for 10-20 min. The reaction was stopped by adding 50 μL of 2N H2SO4. The optical density signal (450/570 nm) of each well was detected in Labsystems Multiskan K3 or Envision.
wherein • Drug-treated well read-out: indicating the optical density signal of a cell well with the test compound treatment. • Background read-out: indicating the optical density signal of a well without cells but with cell lysis buffer. • Cell well read-out: indicating the optical density signal of a cell well not treated with the compound.
6. Calculation of IC50: obtained by using XL-Fit 5.3 software, […]

Recombinant human CSF1R kinase, sequence (P07333 20-972): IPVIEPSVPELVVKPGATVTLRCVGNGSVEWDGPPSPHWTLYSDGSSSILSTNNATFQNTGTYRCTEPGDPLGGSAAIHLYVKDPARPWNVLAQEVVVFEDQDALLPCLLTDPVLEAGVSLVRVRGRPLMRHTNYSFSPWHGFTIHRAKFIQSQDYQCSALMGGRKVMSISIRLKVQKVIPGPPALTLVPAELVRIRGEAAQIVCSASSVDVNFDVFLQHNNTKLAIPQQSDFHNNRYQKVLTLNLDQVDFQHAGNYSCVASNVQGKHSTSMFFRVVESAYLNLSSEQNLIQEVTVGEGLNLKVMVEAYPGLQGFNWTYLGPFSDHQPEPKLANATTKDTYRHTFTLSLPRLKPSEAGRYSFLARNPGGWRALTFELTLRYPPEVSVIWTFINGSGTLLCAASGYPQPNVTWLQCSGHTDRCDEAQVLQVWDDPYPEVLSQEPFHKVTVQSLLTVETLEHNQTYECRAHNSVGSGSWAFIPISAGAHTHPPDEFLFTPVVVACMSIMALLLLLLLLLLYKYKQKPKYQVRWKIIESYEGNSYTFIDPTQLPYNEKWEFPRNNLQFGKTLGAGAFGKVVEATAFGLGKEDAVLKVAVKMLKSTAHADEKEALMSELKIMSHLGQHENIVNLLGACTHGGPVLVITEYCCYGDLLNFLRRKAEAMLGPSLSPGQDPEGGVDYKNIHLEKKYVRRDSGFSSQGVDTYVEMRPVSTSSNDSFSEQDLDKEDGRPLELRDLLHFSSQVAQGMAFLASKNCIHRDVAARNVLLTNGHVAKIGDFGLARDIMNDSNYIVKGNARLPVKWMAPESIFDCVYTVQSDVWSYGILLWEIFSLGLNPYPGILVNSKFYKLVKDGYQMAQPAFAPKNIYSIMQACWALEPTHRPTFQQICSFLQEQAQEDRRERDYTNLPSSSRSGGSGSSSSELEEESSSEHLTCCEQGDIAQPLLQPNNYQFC
CSF1R phosphorylation in THP-1 cells, sequence (P07333 20-972): as above

IC50 [1] [nM] | IC50 [2] [nM] | Compound
17 | 154 | COc1ccc([C@@H]2COc3cc(Oc4ccc5nccc(=O)n5c4)cnc3O2)cn1 [Compound 85]
8 | 56 | COc1ccc([C@@H]2COc3cc(Oc4ccc5ncc(C)c(=O)n5c4)cnc3O2)cn1 [Compound 86]

Source: patent publication US20240092774A1, “HETEROAROMATIC COMPOUNDS AND USES THEREOF” (HUTCHISON MEDIPHARMA LIMITED, priority 2020, published 2024)
